Experimental findings from US11766425B2, “Antibiotic combination therapies” (BIOVERSYS AG, priority 2019, dated 2023) are described below.

SMILES strings stand for the structures. Read-outs that look alike come from different tables or passages of the source.

Common to all, as to type: cell-based, Acinetobacter baumannii
For one assay, the system named is A. baumannii IHMA1013816. Nature of the assay: broth microdilution checkerboard MIC/synergy. The note with it: for MICs combi: strain IHMA1013816. As to the method: (§1) Checkerboards were performed according to the CLSI parameters used for microbroth dilution MIC5. CA-MHB, iron-depleted CA-MHB (ID-CA-MHB) or RPMI supplemented with 10% FCS medium were used as specified and ID-CA-MHB was prepared according to CLSI guidelines. […] FICI is calculated as follows: […]
Background: In broth dilution the organism is exposed to a series of concentrations in liquid medium.

Another assay deals with A. baumannii 401046-18. Description: broth microdilution checkerboard MIC/synergy. To be noted: for MIC: Acinetobacter baumannii, 40104618, strain 401046-18, antibiotic alone, read-out: MICs alone; for MICs combi: strain 401046-18. As to the method:
as §1

For the next assay, the system named is A. baumannii UNT191-1. Nature of the assay: broth microdilution checkerboard MIC/synergy. To be noted: for MIC: Acinetobacter baumannii, UNT1911, strain UNT191-1, antibiotic alone, read-out: MICs alone; for MICs combi: strain UNT191-1. As to the method:
as §1

In the next assay the test system is A. baumannii 401255-18. Nature of the assay: broth microdilution checkerboard MIC/synergy. The note with it: for MIC: Acinetobacter baumannii, 40125518, strain 401255-18, antibiotic alone, read-out: MICs alone; for MICs combi: strain 401255-18. As to the method: as §1
The test system of a further assay is A. baumannii IHMA919656. Description: broth microdilution checkerboard MIC/synergy. The note with it: for MICs combi: strain IHMA919656. As to the method: as §1
The test system of the next assay is A. baumannii UNT239-1. Description: broth microdilution checkerboard MIC/synergy. To be noted: for MICs combi: strain UNT239-1. As to the method: as §1
The next assay has as its system A. baumannii 402292-17. Description: broth microdilution checkerboard MIC/synergy. The note with it: for MIC: Acinetobacter baumannii, 40229217, strain 402292-17, antibiotic alone, read-out: MICs alone; for MICs combi: strain 402292-17. As to the method:
as §1

Another assay has as its system A. baumannii UNT091-1. Nature of the assay: broth microdilution checkerboard MIC/synergy. To be noted: for MIC: Acinetobacter baumannii, UNT0911, strain UNT091-1, antibiotic alone, read-out: MICs alone. As to the method:
as §1

For another assay, the system named is A. baumannii 402608-17. Description: broth microdilution checkerboard MIC/synergy. The note with it: for MIC: Acinetobacter baumannii, 40260817, strain 402608-17, antibiotic alone, read-out: MICs alone; for MICs combi: strain 402608-17. As to the method: as §1
The test system of a further assay is A. baumannii UNT087-1. Nature of the assay: broth microdilution checkerboard MIC/synergy. The note with it: for MIC: Acinetobacter baumannii, UNT0871, strain UNT087-1, antibiotic alone, read-out: MICs alone; for MICs combi: strain UNT087-1. As to the method:
as §1

For a further assay, the system named is A. baumannii IHMA867231. Description: broth microdilution checkerboard MIC/synergy. To be noted: for MIC: Acinetobacter baumannii, IHMA867231, strain IHMA867231, antibiotic alone, read-out: MICs alone; for MICs combi: strain IHMA867231. As to the method: as §1
A further assay deals with A. baumannii IHMA863866. Nature of the assay: broth microdilution checkerboard MIC/synergy. As to the method:
as §1

The test system of another assay is A. baumannii UNT238-1. Nature of the assay: broth microdilution checkerboard MIC/synergy. The note with it: ID-CA-MHB. As to the method: as §1
For another assay, the system named is A. baumannii IHMA690517. Nature of the assay: broth microdilution checkerboard MIC/synergy. The note with it: for MIC: Acinetobacter baumannii, IHMA690517, strain IHMA690517, antibiotic alone, read-out: MICs alone; for MICs combi: strain IHMA690517. As to the method: as §1
The test system of another assay is A. baumannii HUMC1. Description: broth microdilution checkerboard MIC/synergy. The note with it: for MIC: Acinetobacter baumannii, HUMC1, read-out: MICs alone; for MICs combi: strain HUMC1. As to the method:
as §1

Assay [1] deals with A. baumannii LAC-4 strain. Description: broth microdilution checkerboard MIC/synergy. The note with it: for FICI / Interpretation: second antibiotic in combination with rifabutin, LAC-4; for MICs combi: strain LAC-4. As to the method:
as §1
The checkerboards were performed in CA-MHB or ID-CA-MHB for cefiderocol.

Assay [2] deals with panel of MDR clinical isolates of A. baumannii. As to the method:
as §1

Setting [3] is: rifabutin/cefiderocol in combination.
The mark [4] stands for this setting: rifabutin/cefiderocol checkerboard, ID-CA-MHB.
Setting [5] is: rifabutin/cefiderocol in combination, ID-CA-MHB.
The mark [6] stands for this setting: rifabutin/cefiderocol checkerboard.
Where [7] appears, read: rifampicin/colistin in combination.
The mark [8] stands for this setting: rifampicin/colistin checkerboard.

As to `CC(C)(O/N=C(\C(=O)N[C@@H]1C(=O)N2C(C(=O)[O-])=C(C[N+]3(CCNC(=O)c4ccc(O)c(O)c4Cl)CCCC3)CS[C@H]12)c1csc(N)n1)C(=O)O` [Cefiderocol, cefiderocol], the MIC in the assay with A. baumannii IHMA1013816 (Acinetobacter baumannii, IHMA1013816, strain IHMA1013816, antibiotic alone, rifabutin/cefiderocol checkerboard, read-out: MICs alone) turned out to be 0.06 µg/mL; in the assay on A. baumannii 401046-18 (setting [4]), 128 µg/mL; in the assay with A. baumannii UNT191-1 (setting [4]) it was 16 µg/mL; with A. baumannii 401255-18 (setting [6]), 16 µg/mL; with A. baumannii IHMA919656 (Acinetobacter baumannii, IHMA919656, strain IHMA919656, antibiotic alone, rifabutin/cefiderocol checkerboard, read-out: MICs alone) it was 0.125 µg/mL; in the assay with A. baumannii UNT239-1 (Acinetobacter baumannii, UNT2391, read-out: MICs alone) it was 4 µg/mL. The MIC in the assay with A. baumannii 402292-17 (setting [6]) is more than 32 µg/mL; with A. baumannii UNT091-1 (setting [6]), 4 µg/mL; in the assay on A. baumannii 402608-17 (setting [6]), 8 µg/mL; in the assay on A. baumannii UNT087-1 (setting [6]) it was 0.5 µg/mL; with A. baumannii IHMA867231 (setting [6]), 1 µg/mL; in the assay on A. baumannii IHMA863866 (Acinetobacter baumannii, IHMA863866, read-out: MICs alone) it was 4 µg/mL. Moreover, the MIC in the assay on A. baumannii UNT238-1 (Acinetobacter baumannii, UNT2381, strain UNT238-1, antibiotic alone, rifabutin/cefiderocol checkerboard, read-out: MICs alone) was 4 µg/mL; with A. baumannii IHMA690517 (setting [6]), 0.25 µg/mL; in the assay with A. baumannii HUMC1 it was 2 µg/mL; in assay [1] (Acinetobacter baumannii, LAC4STRAIN, read-out: MICs alone), 1 µg/mL. Besides, the MICs combi in the assay on A. baumannii IHMA1013816 (setting [3]) came to 0.016 mg/L; in the assay with A. baumannii 401046-18 (setting [5]), 32 mg/L; with A. baumannii UNT191-1 (setting [5]) it was 4 mg/L; in the assay on A. baumannii 401255-18 (setting [3]), 4 mg/L; with A. baumannii IHMA919656 (setting [3]), 0.03 mg/L; in the assay on A. baumannii UNT239-1 (setting [5]) it was 1 mg/L. Also, the MICs combi is on record as 8 mg/L with A. baumannii 402292-17 (setting [3]); 1 mg/L with A. baumannii UNT091-1 (strain UNT091-1, rifabutin/cefiderocol in combination); 2 mg/L with A. baumannii 402608-17 (setting [3]); 0.125 mg/L in the assay on A. baumannii UNT087-1 (setting [3]); 0.25 mg/L with A. baumannii IHMA867231 (setting [3]); 1 mg/L in the assay with A. baumannii IHMA863866 (strain IHMA863866, rifabutin/cefiderocol in combination). The MICs combi with A. baumannii UNT238-1 (strain UNT238-1, rifabutin/cefiderocol in combination) came to 1 mg/L; in the assay with A. baumannii IHMA690517 (setting [3]) it was 0.06 mg/L; in the assay on A. baumannii HUMC1 (setting [3]), 0.5 mg/L; in [1] (setting [5]), 0.25 mg/L. In addition, the FICI in [1] (ID-CA-MHB) turned out to be 0.5. For the same molecule, in assay [1] (ID-CA-MHB), the Interpretation entry is “synergy (synergy (FICI≤0.5))”. Besides, the “decrease in the MIC of cefiderocol” value in assay [2] (in combination with rifabutin, all A. baumannii strains tested (16 MDR isolates)) is recorded as not below 4 fold. In assay [2] (rifabutin/cefiderocol, panel of strains), the “strains on which synergy was observed” value worked out at 100%.

In the case of `CO/N=C(\C(=O)N[C@@H]1C(=O)N2C(C(=O)O)=C(COC(C)=O)CS[C@H]12)c1csc(N)n1` [Cefotaxime, cefotaxime], in [1] (CA-MHB), the FICI amounted to 1.5; the Interpretation entry was “indifferent (indifferent (FICI>0.50 and ≤4))”.

In the case of `CN(C)[C@@H]1C(O)=C(C(N)=O)C(=O)[C@@]2(O)C(O)=C3C(=O)c4c(O)c(NC(=O)CN5CCCC5)cc(F)c4C[C@H]3C[C@@H]12` [Eravacycline, eravacycline], in assay [1] (CA-MHB), the FICI was 1; the Interpretation result is “indifferent (indifferent (FICI>0.50 and ≤4))”.

In the case of `C[C@@H](O)[C@H]1C(=O)N2C(C(=O)O)=C(S[C@@H]3CN[C@H](C(=O)N(C)C)C3)[C@H](C)[C@H]12` [Meropenem, meropenem], in assay [1] (CA-MHB), the FICI was 1; the Interpretation result was “indifferent (indifferent (FICI>0.50 and ≤4))”.

In the case of `CN(C)c1ccc(O)c2c1C[C@H]1C[C@H]3[C@H](N(C)C)C(O)=C(C(N)=O)C(=O)[C@@]3(O)C(O)=C1C2=O` [Minocycline, minocycline], in assay [1] (CA-MHB), the FICI was found to be 1; the Interpretation result is “indifferent (indifferent (FICI>0.50 and ≤4))”.

Regarding `CO[C@H]1/C=C/O[C@@]2(C)Oc3c(C)c(O)c4c(O)c(c(/C=N/N5CCN(C)CC5)c(O)c4c3C2=O)NC(=O)/C(C)=C\C=C\[C@H](C)[C@H](O)[C@@H](C)[C@@H](O)[C@@H](C)[C@H](OC(C)=O)[C@@H]1C` [Rifampicin, rifampicin], the MICs combi is recorded as 0.06 mg/L with A. baumannii IHMA1013816 (setting [7]); 64 mg/L with A. baumannii 401046-18 (setting [7]); 0.25 mg/L in the assay on A. baumannii UNT191-1 (setting [7]); 128 mg/L in the assay with A. baumannii 401255-18 (setting [7]); 0.03 mg/L in the assay on A. baumannii IHMA919656 (setting [7]); 0.25 mg/L with A. baumannii UNT239-1 (setting [7]). Also, the MICs combi in the assay on A. baumannii 402292-17 (setting [7]) amounted to 256 mg/L; in the assay on A. baumannii 402608-17 (setting [7]) it was 64 mg/L; in the assay with A. baumannii UNT087-1 (setting [7]), 4 mg/L; in the assay with A. baumannii IHMA867231 (setting [7]), 32 mg/L; with A. baumannii IHMA690517 (setting [7]) it was 0.06 mg/L; with A. baumannii HUMC1 (setting [7]), 1 mg/L. For the same molecule, in assay [1] (setting [7]), the MICs combi is 0.06 mg/L. In addition, the MIC amounted to 512 µg/mL with A. baumannii 401046-18 (setting [8]); 4 µg/mL in the assay with A. baumannii UNT191-1 (setting [8]); 512 µg/mL in the assay on A. baumannii 401255-18 (setting [8]); 512 µg/mL with A. baumannii 402292-17 (setting [8]); 4 µg/mL with A. baumannii UNT091-1 (setting [8]); 512 µg/mL in the assay on A. baumannii 402608-17 (setting [8]). The MIC was determined as 4 µg/mL in the assay with A. baumannii UNT087-1 (setting [8]), 512 µg/mL in the assay with A. baumannii IHMA867231 (setting [8]), 4 µg/mL in the assay with A. baumannii IHMA690517 (setting [8]) and 4 µg/mL in the assay on A. baumannii HUMC1. Besides, the “rifampicin combination MICs” value in [2] (in combination with colistin, isolates with mutations in the rpoB gene) is on record as not below 32 mg/L. In assay [2] (rifampicin with colistin), the “strains on which synergy was observed” value was found to be 88%.

For the molecule `NC[C@H]1O[C@H](O[C@H]2[C@H](O)[C@@H](O[C@H]3O[C@H](CO)[C@@H](O)[C@H](N)[C@H]3O)[C@H](N)C[C@@H]2N)[C@H](N)C[C@@H]1O` [Tobramycin, tobramycin], in [1] (CA-MHB), the FICI was 1.5; the Interpretation result is “indifferent (indifferent (FICI>0.50 and ≤4))”.
